# Assay results reported in paper PMC11882969 (Nature Communications, 2025).
# Values joined by “and” are separate entries in the source; they are usually repeats but may differ in a detail not shown here. Equal values may be shown once. Read-outs that look alike come from different tables or passages of the source.
# Columns and labels:
# [1] = biological target: T1, CB1 (rCB1) (Rattus norvegicus, UniProt P20272); assay: Single-point radioligand displacement screen; assay type: binding
# [2] = biological target: AmpC β-lactamase (Escherichia coli, UniProt P00811); assay type: biochemical; details: Log[7019], sheet FigS2d
# Sequence of AmpC β-lactamase (P00811 20-377): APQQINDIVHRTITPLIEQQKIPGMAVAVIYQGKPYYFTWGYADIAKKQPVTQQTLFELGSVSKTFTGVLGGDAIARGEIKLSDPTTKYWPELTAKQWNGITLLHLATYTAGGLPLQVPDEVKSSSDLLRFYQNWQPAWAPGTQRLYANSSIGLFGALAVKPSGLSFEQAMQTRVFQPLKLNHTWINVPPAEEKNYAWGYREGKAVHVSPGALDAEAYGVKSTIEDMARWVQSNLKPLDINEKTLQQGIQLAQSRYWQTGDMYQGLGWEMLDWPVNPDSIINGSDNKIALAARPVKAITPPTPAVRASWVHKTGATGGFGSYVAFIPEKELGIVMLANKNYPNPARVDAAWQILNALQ
# Method: Enzyme inhibition assays to test for colloidal inhibition were performed at room temperature using CLARIOstar Plate Reader (BMG Labtech). Samples were prepared in 50 mM KPi buffer, pH 7.0 with final DMSO concentration at 1% (v/v). Compounds were incubated with 2 nM AmpC β-lactamase (AmpC) or Malate dehydrogenase (MDH) for 5 min. AmpC reactions were initiated by the addition of 50 μM CENTA chromogenic substrate (219475, Calbiochem). […] MDH reactions were initiated by the addition of 200 μM nicotinamide adenine dinucleotide (NADH) (54839, Sigma Aldrich) and 200 μM oxaloacetic acid (324427, Sigma Aldrich). The change in absorbance was monitored at 340 nm for 60 sec. Initial rates were divided by the DMSO control rate to determine % enzyme activity. […]. Data was analyzed using GraphPad Prism 9.1.
# [3] = biological target: T2, hCB1 (Homo sapiens, UniProt P21554); assay: Lance Ultra cAMP accumulation assay, CHO cells; assay type: cell-based; parameters: expressed in transfected cells; details: replicates, sheet FigureS2a;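 note: human CB1R stably expressed in CHO cells, ligands co-incubated with forskolin at room temperature, read-out is lowering of forskolin-stimulated cAMP accumulation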
# T2 sequence (P21554 whole entry): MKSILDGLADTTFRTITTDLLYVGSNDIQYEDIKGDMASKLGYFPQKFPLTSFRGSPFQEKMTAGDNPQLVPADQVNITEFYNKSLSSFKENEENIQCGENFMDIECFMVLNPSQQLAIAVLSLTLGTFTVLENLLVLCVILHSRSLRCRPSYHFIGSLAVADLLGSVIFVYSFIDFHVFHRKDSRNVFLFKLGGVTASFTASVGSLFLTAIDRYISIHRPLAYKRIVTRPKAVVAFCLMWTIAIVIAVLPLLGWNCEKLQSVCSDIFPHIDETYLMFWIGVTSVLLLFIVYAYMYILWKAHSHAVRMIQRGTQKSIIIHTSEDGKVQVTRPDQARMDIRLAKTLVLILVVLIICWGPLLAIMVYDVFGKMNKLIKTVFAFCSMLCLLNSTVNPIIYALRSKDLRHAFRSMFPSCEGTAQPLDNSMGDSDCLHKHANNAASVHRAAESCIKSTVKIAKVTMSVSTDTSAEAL
# Method: The inhibition of forskolin-stimulated cAMP accumulation assays was carried out using PerkinElmer’s Lance Ultra cAMP kit following the manufacturer’s protocol. In brief, CHO cells stably expressing human CB1R (provided by the lab of Laura Bohn) were harvested by incubation with Versene (ThermoFisher Scientific, Waltham, MA) for 10 min, washed once with Hank’s Balanced Salt Solution, and resuspended in stimulation buffer at ~200 cells/μL density. The ligands at eight different concentrations (0.001-10,000 nM) in stimulation buffer (5 μL) containing forskolin (2 μM final concentration) were added to a 384-well plate followed by the cell suspension (5 μL; ~1000 cells/well). The plate was incubated for 30 min at room temperature. Eu-cAMP tracer (5 μL) and Ulight-anti-cAMP (5 μL) working solutions were then added to each well, and the plate was incubated at room temperature for an additional 60 min. Results were measured on a Perkin-Elmer EnVision plate reader. The EC50 values were determined by nonlinear regression analysis using Graphpad Prism 9 and are expressed as the mean of three experiments, each performed in triplicate.
# [4] = biological target: T2, hCB1; assay: bioSensAll ebBRET signaling profiling, hCB1; assay type: cell-based; parameters: host or cells: HEK293SL cells, transient PEI transfection; details: for Barr2+GRK2 hCB1 response: Barr2+GRK2 biosensor; for Gi1 hCB1 / GoB hCB1: single replicate values, FigS6a
# [5] = biological target: T1, CB1 (rCB1); assay: Radioligand competition binding, [3H]-CP-55,940, rat brain membranes
# T1 sequence (P20272 whole entry): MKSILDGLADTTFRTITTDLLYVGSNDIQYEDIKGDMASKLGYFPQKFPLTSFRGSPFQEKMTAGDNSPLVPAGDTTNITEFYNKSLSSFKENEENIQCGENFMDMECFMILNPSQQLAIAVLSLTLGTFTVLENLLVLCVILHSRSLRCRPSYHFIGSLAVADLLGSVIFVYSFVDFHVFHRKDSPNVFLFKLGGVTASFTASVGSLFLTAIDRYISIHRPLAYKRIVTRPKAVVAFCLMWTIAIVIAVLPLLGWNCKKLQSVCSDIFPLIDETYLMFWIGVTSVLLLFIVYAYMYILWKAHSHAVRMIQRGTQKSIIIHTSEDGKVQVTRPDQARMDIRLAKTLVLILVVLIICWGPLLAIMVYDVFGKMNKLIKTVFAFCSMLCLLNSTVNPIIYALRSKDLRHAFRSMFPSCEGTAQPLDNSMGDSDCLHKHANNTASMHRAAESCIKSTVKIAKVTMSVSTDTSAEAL
smiles,measurement,setting,value
Cc1nc(CC2CC2)oc1-c1nc(Cc2cc3c(cc2Br)OCO3)no1 [‘7019],"% 1H-CP-55,940 displacement (mean) from single point screen","[1]; 10 µM, 1 µM or 300 nM by cell colour (not visible)",69.08%
same,rep1_displacement,"[1]; Figure 1c source data, replicate 1",67.1
same,rep2_displacement,"[1]; Figure 1c source data, replicate 2",70.3
same,rep3_displacement,"[1]; Figure 1c source data, replicate 3",69.9
same,AmpC inhibition,[2]; uM 0,0
same,AmpC inhibition,[2]; uM 1,0
same,AmpC inhibition,[2]; uM 1.49996,27.6
same,AmpC inhibition,[2]; uM 2,55.1
same,AmpC inhibition,[2]; uM -0.500011,0
same,AmpC inhibition,[2]; uM -1,0
same,"cAMP assay signal, concentration-response point",[3]; compound 0.01 nM,0.00339 and 0.00303 and 0.003953
same,"cAMP assay signal, concentration-response point",[3]; compound 0.1 nM,0.003311 (2×) and 0.004082
same,"cAMP assay signal, concentration-response point",[3]; compound 1 nM,0.003289 and 0.004926 and 0.003401
same,"cAMP assay signal, concentration-response point",[3]; compound 10 nM,0.003247 and 0.002457 and 0.002907
same,"cAMP assay signal, concentration-response point",[3]; compound 100 nM,0.002793 and 0.0025 and 0.003861
same,"cAMP assay signal, concentration-response point",[3]; compound 1000 nM,0.003175 and 0.003571 and 0.003759
same,"cAMP assay signal, concentration-response point",[3]; compound 10000 nM,0.00431 and 0.005952* and 0.003571
same,"cAMP assay signal, concentration-response point",[3]; compound 100000 nM,0.0007716 and 0.001742 and 0.0006817
same,Barr2+GRK2 hCB1 response,[4]; Log [Compound] (M) -4.22186,62.2028
same,Barr2+GRK2 hCB1 response,[4]; Log [Compound] (M) -4.63927,5.727
same,Barr2+GRK2 hCB1 response,[4]; Log [Compound] (M) -5.05788,-5.441
same,Barr2+GRK2 hCB1 response,[4]; Log [Compound] (M) -5.47381,-3.845
same,Barr2+GRK2 hCB1 response,[4]; Log [Compound] (M) -5.89285,30.2955
same,Barr2+GRK2 hCB1 response,[4]; Log [Compound] (M) -6.31878,10.513
same,Barr2+GRK2 hCB1 response,[4]; Log [Compound] (M) -6.72585,12.1083
same,Barr2+GRK2 hCB1 response,[4]; Log [Compound] (M) -7.14267,9.875
same,Barr2+GRK2 hCB1 response,[4]; Log [Compound] (M) -7.55284,-7.674
same,Barr2+GRK2 hCB1 response,[4]; Log [Compound] (M) -8,3.174
same,Barr2+GRK2 hCB1 response,[4]; Log [Compound] (M) -8.22186,10.513
same,Barr2+GRK2 hCB1 response,[4]; Log [Compound] (M) -8.39794,2.217
same,Barr2+GRK2 hCB1 response,[4]; Log [Compound] (M) -8.68787,-30.0093
same,Barr2+GRK2 hCB1 response,[4]; Log [Compound] (M) -9.15521,-44.3676
same,Barr2+GRK2 hCB1 response,[4]; Log [Compound] (M) -9.61989,-29.3712
same,Barr2+GRK2 hCB1 response,[4]; Log [Compound] (M) -10.0969,-17.8845
same,Barr2+GRK2 hCB1 response,[4]; Log [Compound] (M) -10.5529,-36.0717
same,Barr2+GRK2 hCB1 response,[4]; Log [Compound] (M) -11.0177,-47.2392
same,Barr2+GRK2 hCB1 response,[4]; Log [Compound] (M) -11.4949,-38.6243
same,Barr2+GRK2 hCB1 response,[4]; Log [Compound] (M) -11.9208,-22.6706
same,Barr2+GRK2 hCB1 response,[4]; Log [Compound] (M) -12.3979,-32.5619
same,Barr2+GRK2 hCB1 response,[4]; Log [Compound] (M) -12.8861,-24.5851
same,Barr2+GRK2 hCB1 response,[4]; Log [Compound] (M) -13.3979,-2.25
same,Gi1 hCB1,[4]; Log [Compound] (M) -4.22186,-7.329
same,GoB hCB1,[4]; Log [Compound] (M) -4.22186,-13.0099
same,Gi1 hCB1,[4]; Log [Compound] (M) -4.63927,-8.042
same,GoB hCB1,[4]; Log [Compound] (M) -4.63927,-13.6002
same,Gi1 hCB1,[4]; Log [Compound] (M) -5.05788,-10.1639
same,GoB hCB1,[4]; Log [Compound] (M) -5.05788,-11.5515
same,Gi1 hCB1,[4]; Log [Compound] (M) -5.47381,-10.5282
same,GoB hCB1,[4]; Log [Compound] (M) -5.47381,-15.1627
same,Gi1 hCB1,[4]; Log [Compound] (M) -5.89285,-9.467
same,GoB hCB1,[4]; Log [Compound] (M) -5.89285,-15.9787
same,Gi1 hCB1,[4]; Log [Compound] (M) -6.31878,-6.569
same,GoB hCB1,[4]; Log [Compound] (M) -6.31878,-12.489
same,Gi1 hCB1,[4]; Log [Compound] (M) -6.72585,-4.716
same,GoB hCB1,[4]; Log [Compound] (M) -6.72585,-9.694
same,Gi1 hCB1,[4]; Log [Compound] (M) -7.14267,3.012
same,GoB hCB1,[4]; Log [Compound] (M) -7.14267,-8.531
same,Gi1 hCB1,[4]; Log [Compound] (M) -7.55284,0.08255
same,GoB hCB1,[4]; Log [Compound] (M) -7.55284,-6.326
same,Gi1 hCB1,[4]; Log [Compound] (M) -8,2.236
same,GoB hCB1,[4]; Log [Compound] (M) -8,-8.913
same,Gi1 hCB1,[4]; Log [Compound] (M) -8.22186,3.4083
same,GoB hCB1,[4]; Log [Compound] (M) -8.22186,-2.3673
same,Gi1 hCB1,[4]; Log [Compound] (M) -8.39794,2.078
same,GoB hCB1,[4]; Log [Compound] (M) -8.39794,-8.01
same,Gi1 hCB1,[4]; Log [Compound] (M) -8.68787,0.1776
same,GoB hCB1,[4]; Log [Compound] (M) -8.68787,-4.607
same,Gi1 hCB1,[4]; Log [Compound] (M) -9.15521,-0.1708
same,GoB hCB1,[4]; Log [Compound] (M) -9.15521,-5.336
same,Gi1 hCB1,[4]; Log [Compound] (M) -9.61989,0.4151
same,GoB hCB1,[4]; Log [Compound] (M) -9.61989,-6.256
same,Gi1 hCB1,[4]; Log [Compound] (M) -10.0969,-0.8202
same,GoB hCB1,[4]; Log [Compound] (M) -10.0969,-5.6139
same,Gi1 hCB1,[4]; Log [Compound] (M) -10.5529,1.635
same,GoB hCB1,[4]; Log [Compound] (M) -10.5529,-5.77
same,Gi1 hCB1,[4]; Log [Compound] (M) -11.0177,0.2092
same,GoB hCB1,[4]; Log [Compound] (M) -11.0177,-3.426
same,Gi1 hCB1,[4]; Log [Compound] (M) -11.4949,-0.7251
same,GoB hCB1,[4]; Log [Compound] (M) -11.4949,-5.058
same,Gi1 hCB1,[4]; Log [Compound] (M) -11.9208,-0.5034
same,GoB hCB1,[4]; Log [Compound] (M) -11.9208,-3.392
same,Gi1 hCB1,[4]; Log [Compound] (M) -12.3979,1.698
same,GoB hCB1,[4]; Log [Compound] (M) -12.3979,-7.2806
same,Gi1 hCB1,[4]; Log [Compound] (M) -12.8861,0.8586
same,GoB hCB1,[4]; Log [Compound] (M) -12.8861,-4.763
same,Gi1 hCB1,[4]; Log [Compound] (M) -13,6.94
same,GoB hCB1,[4]; Log [Compound] (M) -13,-5.215
same,Gi1 hCB1,[4]; Log [Compound] (M) cell empty,3.028
same,GoB hCB1,[4]; Log [Compound] (M) cell empty,-6.482
same,"radioligand binding remaining, competition curve (Figure2e), replicate values",[5]; log[drug] -3.643,14.0395 and 10.3537 and 12.7126
same,"radioligand binding remaining, competition curve (Figure2e), replicate values",[5]; log[drug] -4.35655,11.9492 and 13.8721 and 12.5783
same,"radioligand binding remaining, competition curve (Figure2e), replicate values",[5]; log[drug] -5.07,46.5819 and 49.8809 and 53.387
same,"radioligand binding remaining, competition curve (Figure2e), replicate values",[5]; log[drug] -5.783,89.8305 and 82.4446 and 90.6893
same,"radioligand binding remaining, competition curve (Figure2e), replicate values",[5]; log[drug] -6.496,105.085 and 92.9907 and 91.4056
same,"radioligand binding remaining, competition curve (Figure2e), replicate values",[5]; log[drug] -7.21,98.1356 and 103.28 and 99.3733
same,"radioligand binding remaining, competition curve (Figure2e), replicate values",[5]; log[drug] -7.923,89.0395 and 99.5785 and 100.597
same,"radioligand binding remaining, competition curve (Figure2e), replicate values",[5]; log[drug] -8.636,97.4011 and 107.312 and 98.9257
same,pKi [95% CI],[5]; rCB1,5.39 [5.27 –5.52]
